Test systems include LXFL 529; HOP-18; KM-20L2; M19-MEL; DMS-114; XF498; DLD-1; DMS-273; RXF 631.
Test in all cases: DTP human tumour cell line panel, 48 h

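Briefly, cells in 96-well plates were exposed to five compound concentrations for 48 h, and endpoints were estimated by linear interpolation. GI50 is the concentration that inhibits growth by half.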 Active and inactive are the calls of the source. Cut-off read from the data, not from the text of the source: active = GI50 up to about 1.1 µM and inactive = higher.

The term GI50 denotes the concentration that inhibits growth by half.

`COc1ccc(NC(=O)c2cc(OC)c(OC)c(OC)c2)cc1`: the GI50 in the assay with LXFL 529 was 51.8 µM (inactive); in the assay with HOP-18 it was > 64.6 µM (inactive); with KM-20L2, 32.7 µM (inactive); in the assay with M19-MEL, 41.7 µM (inactive); in the assay with DMS-114 it was 25.7 µM (inactive); with XF498 it was > 100 µM (inactive). Also, the GI50 in the assay with DLD-1 was 50.6 µM (inactive); with DMS-273, 29.1 µM (inactive); in the assay with RXF 631 it was > 56.4 µM (inactive).

In the case of `COc1cc2c(cc1OC)c1c(OC)c(OC)cc3c1c1c2sc(=S)n1CC3`, the GI50 with LXFL 529 was 35.1 µM (inactive); in the assay with HOP-18 it was > 100 µM (inactive); in the assay with KM-20L2, > 100 µM (inactive); in the assay on M19-MEL, 34.4 µM (inactive); with DMS-114 it was 29.3 µM (inactive); with DLD-1, 43 µM (inactive). Moreover, in the assay on DMS-273, the GI50 was 53.1 µM (inactive).

As to `COc1ccc(CNC2=C(NC(C)=O)C(=O)c3ccccc3C2=O)cc1`, the GI50 in the assay with LXFL 529 was 8.07 µM (inactive); with KM-20L2, 28.8 µM (inactive); in the assay on M19-MEL it was 9.48 µM (inactive); with DLD-1 it was 8.53 µM (inactive); in the assay with DMS-273, 16.4 µM (inactive).

On to `COc1ccc(C(=O)/C(=N/Nc2ccccc2)c2ccc(OC)cc2)cc1`, for which the GI50 in the assay on LXFL 529 was 25.2 µM (inactive); in the assay on HOP-18, > 100 µM (inactive); in the assay on KM-20L2, 10.2 µM (inactive); with M19-MEL, > 100 µM (inactive); in the assay with DMS-114, 58.1 µM (inactive); with XF498 it was > 100 µM (inactive). Besides, the GI50 in the assay with DLD-1 is 6.87 µM (inactive); in the assay with DMS-273 it was 31.6 µM (inactive); in the assay on RXF 631 it was 8.43 µM (inactive).

For `CCC(=O)C12OC3OC(C)(C)OC3C1OC(C)(C)O2` (stereo unspecified), the GI50 in the assay on M19-MEL, in the assay with XF498, with DLD-1, in the assay with DMS-273 and in the assay with RXF 631 was > 100 µM (inactive) in each case.

Regarding `CC(=O)Oc1cc2c(cc1OC(C)=O)C1(C)CCC2(C)c2cc(OC(C)=O)c(OC(C)=O)cc21`, the GI50 in the assay on LXFL 529 was 4.99 µM (inactive); in the assay on KM-20L2, 26 µM (inactive); in the assay with M19-MEL it was 9.04 µM (inactive); in the assay with XF498, 11.4 µM (inactive); in the assay on DLD-1 it was 17.7 µM (inactive); in the assay on DMS-273, 19.4 µM (inactive). Further, the GI50 in the assay with RXF 631 was 23.2 µM (inactive).

With `CCOC(=O)Nc1cc2c(c(N)n1)N=C(c1ccccc1)[C@H](C)N2` [MIVOBULIN ISETHIONATE], the GI50 was < 0.0001 µM (active) with LXFL 529; 0.641 µM (active) with HOP-18; < 0.0001 µM (active) in the assay with KM-20L2; < 0.0001 µM (active) in the assay on M19-MEL; < 0.0001 µM (active) with DMS-114; < 0.0001 µM (active) with XF498. The GI50 with DLD-1 and in the assay with DMS-273 was < 0.0001 µM (active) each time.

With `CC1=C(C(=O)NCc2ccccc2)C(c2ccccc2O)C(C(=O)NCc2ccccc2)=C(C)N1`, the GI50 was 15 µM (inactive) in the assay on LXFL 529; 23.9 µM (inactive) with HOP-18; 19.9 µM (inactive) in the assay on KM-20L2; 18.2 µM (inactive) in the assay on M19-MEL; 18.2 µM (inactive) with DMS-114; 17 µM (inactive) in the assay with XF498. The values for the GI50 with DLD-1 and in the assay with DMS-273 were 15.1 µM (inactive) and 14.6 µM (inactive), respectively.

`COc1ccc(/C=C2\CCC(C)(CN(C)C)C2=O)cc1OC` (stereo unspecified): the GI50 in the assay with LXFL 529, in the assay on HOP-18, in the assay with KM-20L2, with M19-MEL, with DMS-114 and with DLD-1 was > 100 µM (inactive) in each case. The GI50 in the assay with DMS-273 and with RXF 631 was > 100 µM (inactive) throughout.

In the case of `Oc1cc(-c2cccc(F)c2)nc2cc3c(cc12)OCO3`, the GI50 is 0.463 µM (active) in the assay on LXFL 529; 5.42 µM (inactive) in the assay on HOP-18; 0.272 µM (active) with M19-MEL; 0.239 µM (active) in the assay on DMS-114; 0.495 µM (active) in the assay on XF498; 0.252 µM (active) in the assay with DLD-1. For the same compound, in the assay with DMS-273, the GI50 is 0.349 µM (active).

With `O=C1CCCC1NC(=O)C(F)(F)F` (stereo unspecified), the GI50 with LXFL 529, in the assay with M19-MEL, in the assay on XF498, with DLD-1 and in the assay with DMS-273 was > 100 µM (inactive) in each case.

For the compound `C#CC1/C(=C\C(=O)OC)CCCC1O` (stereo unspecified), the GI50 with LXFL 529, with HOP-18, in the assay on KM-20L2, in the assay on M19-MEL, with DMS-114 and with XF498 was > 100 µM (inactive) throughout. The GI50 with DLD-1 and in the assay on DMS-273 was > 100 µM (inactive) each time.

Take `N#CCN1CCOCCOCCN(CC#N)CCOCCOCC1`: the GI50 with LXFL 529, in the assay with HOP-18, with KM-20L2, in the assay on M19-MEL, in the assay with DMS-114 and with DLD-1 was > 100 µM (inactive) each time. Moreover, the GI50 in the assay with RXF 631 is > 100 µM (inactive).

With `OC(c1ccccc1)(c1ccccc1)c1cccnc1`, the GI50 in the assay with HOP-18, in the assay on KM-20L2, in the assay with M19-MEL, in the assay with DMS-114, with XF498 and with DLD-1 was > 100 µM (inactive) in each case. Further, in the assay with DMS-273, the GI50 is > 100 µM (inactive).

Consider `C=C(C)C(=O)OC1CC2=CC(CC3(C)OC3C3OC(=O)C(=C)C13)OC2=O` (stereo unspecified), for which the GI50 in the assay on LXFL 529 is 2.51 µM (inactive); in the assay on HOP-18 it was 19.9 µM (inactive); in the assay on KM-20L2, 15 µM (inactive); with M19-MEL, 6.62 µM (inactive); with DMS-114, 15.2 µM (inactive); with DLD-1, 1.99 µM (inactive). Besides, the GI50 in the assay on DMS-273 was 12.9 µM (inactive); with RXF 631, 15.8 µM (inactive).

In the case of `O=[N+]([O-])C(/C=N/Nc1ccccc1)/C=N/Nc1ccccc1`, the GI50 in the assay with LXFL 529, with HOP-18, with KM-20L2, in the assay on M19-MEL, in the assay on DMS-114 and with XF498 was > 100 µM (inactive) each time. Further, the GI50 in the assay on DLD-1 and with DMS-273 was > 100 µM (inactive) each time.

Regarding `CCCN(CCCCC(NC(C)=O)C(=O)NCc1ccccc1)C(=O)N(CCCl)N=O` (stereo unspecified), the GI50 is > 100 µM (inactive) with LXFL 529; > 100 µM (inactive) with HOP-18; > 100 µM (inactive) in the assay with KM-20L2; > 82.6 µM (inactive) in the assay with M19-MEL; 98.2 µM (inactive) in the assay on DMS-114; > 100 µM (inactive) with XF498. Further, the GI50 in the assay with DLD-1 is > 68.9 µM (inactive); in the assay with DMS-273 it was 72.6 µM (inactive); with RXF 631, > 100 µM (inactive).

On to `CC(C)N1CN(C(C(=O)N[C@@H]2C(=O)N3C2SC(C)(C)C3C(=O)O)c2ccccc2)CSC1=S` (stereo partly specified), for which the GI50 is > 100 µM (inactive) with LXFL 529; > 100 µM (inactive) in the assay on HOP-18; > 100 µM (inactive) in the assay with KM-20L2; > 100 µM (inactive) in the assay on M19-MEL; 48.5 µM (inactive) in the assay with DMS-114; > 100 µM (inactive) with XF498. Moreover, the GI50 with DLD-1 and with DMS-273 was > 100 µM (inactive) throughout.

As to `Cc1ccc(S(=O)OCc2c(C)c(C)c(COS(=O)c3ccc(C)cc3)c(C)c2C)cc1` (stereo unspecified), the GI50 in the assay on LXFL 529, with HOP-18, in the assay with KM-20L2, with M19-MEL, in the assay on DMS-114 and in the assay with XF498 was > 100 µM (inactive) in each case. Further, the GI50 with DLD-1 and with DMS-273 was > 100 µM (inactive) in each case.

`CNC(=O)CN(CC(=O)O)C(=O)NC`: the GI50 with LXFL 529, with M19-MEL, in the assay with XF498, in the assay with DLD-1, with DMS-273 and in the assay on RXF 631 was > 100 µM (inactive) each time.

For the compound `O=C(CC1(O)C(=O)Nc2c(Cl)cc(Cl)cc21)c1ccc(Br)cc1Br` (stereo unspecified), the GI50 with HOP-18 was 14.4 µM (inactive); in the assay with KM-20L2, 18.6 µM (inactive); with M19-MEL it was 9.04 µM (inactive); in the assay on DMS-114, 6.56 µM (inactive); in the assay with XF498, 11.6 µM (inactive); with DLD-1, 5.48 µM (inactive). For the same compound, the GI50 was 7.05 µM (inactive) in the assay on DMS-273 and 4.66 µM (inactive) in the assay on RXF 631.

For the compound `CN1CCN(CN2C(=O)C3C4C=CC(C3C2=O)C2C3C(=O)N(CN5CCN(C)CC5)C(=O)C3C42)CC1` (stereo unspecified), the GI50 was 19.9 µM (inactive) with LXFL 529, 25 µM (inactive) in the assay with KM-20L2, 17.9 µM (inactive) in the assay on DMS-114 and 22.5 µM (inactive) in the assay on DLD-1.

Turning to `COc1cccc(/C=C2\CCC(CCN(C)C)(C3=CCCC3)C2=O)c1` (stereo unspecified), the GI50 is 15.5 µM (inactive) with LXFL 529; 13.7 µM (inactive) in the assay on HOP-18; 16.4 µM (inactive) with M19-MEL; 14.3 µM (inactive) in the assay on DMS-114; 17.7 µM (inactive) in the assay with XF498; 17.8 µM (inactive) with DLD-1. In addition, the values for the GI50 with DMS-273 and in the assay with RXF 631 were 14.4 µM (inactive) and 23.7 µM (inactive), respectively.

Turning to `C[P+](C)(CC(F)(F)F)c1ccccc1`, the GI50 in the assay on LXFL 529 was > 100 µM (inactive); in the assay with HOP-18, > 100 µM (inactive); with KM-20L2 it was > 100 µM (inactive); in the assay with M19-MEL it was > 100 µM (inactive); in the assay on DMS-114 it was > 100 µM (inactive); with XF498, < 0.01 µM (active). Also, the GI50 with DLD-1 and with DMS-273 was > 100 µM (inactive) each time.

For `COc1ccc(C2C(Cl)C(=O)N2n2cnc3ccccc3c2=O)cc1OC` (stereo unspecified), the GI50 in the assay on LXFL 529 is > 100 µM (inactive); with HOP-18, 25.3 µM (inactive); in the assay on KM-20L2 it was > 100 µM (inactive); in the assay with M19-MEL it was > 100 µM (inactive); in the assay on DMS-114 it was > 100 µM (inactive); in the assay on XF498, > 100 µM (inactive). Also, the GI50 in the assay on DMS-273 is > 100 µM (inactive).

Regarding `Cc1nc2ccccc2c(=O)n1NC(=S)Nc1ccc(Cl)cc1[N+](=O)[O-]`, the GI50 in the assay with LXFL 529, in the assay on KM-20L2, in the assay on M19-MEL and in the assay with DMS-114 was > 100 µM (inactive) in each case.

The values above are taken from ChEMBL document CHEMBL1201862, “PubChem BioAssay data set” (2004).
